Measurements reported in ChEMBL document CHEMBL5365548, “Discovery of Pyrrolo[2,3-c]pyridines as Potent and Reversible LSD1 Inhibitors” (ACS Med Chem Lett, 2023).
One block for each compound: values may come before it.

What was measured:
[1] = target: Lysine-specific histone demethylase 1A (Homo sapiens, UniProt O60341); test: Inhibition of human recombinant LSD1 expressed in Escherichia coli using H3K4me2 peptide as substrate incubated for 60 mins by AlphaLISA assay
MOLM-13 = test: Antiproliferative activity against human MOLM-13 cells assessed as cell growth inhibition incubated for 7 days by WST-8 assay; type: functional, cell-based; conditions: MOLM-13, 168 h
MV4-11 = test: Antiproliferative activity against human MV4-11 cells assessed as cell growth inhibition incubated for 10 days by WST-8 assay; type: functional, cell-based; conditions: MV4-11, 240 h
NCI-H1417 = test: Antiproliferative activity against human NCI-H1417 cells assessed as cell growth inhibition incubated for 10 days by WST-8 assay; type: functional, cell-based; conditions: NCI-H1417, 240 h
[2] = Microsomal stability in mouse liver microsome assessed as half life measured upto 60 mins by LC-MS/MS analysis; type: ADME; conditions: liver microsomes
[3] = Microsomal stability in rat liver microsome assessed as half life measured upto 60 mins by LC-MS/MS analysis; type: ADME; conditions: liver microsomes
[4] = Microsomal stability in dog liver microsome assessed as half life measured upto 60 mins by LC-MS/MS analysis; type: ADME, Canis lupus familiaris; conditions: liver microsomes
[5] = Microsomal stability in human liver microsome assessed as half life measured upto 60 mins by LC-MS/MS analysis; type: ADME; conditions: liver microsomes

Structure (SMILES): Cc1ccc(-c2ncc(OC[C@@H]3CCNC3)cc2-c2ccc(C#N)cc2)cc1
- IC50 [1]: 130 nM
- IC50 (MOLM-13): 613 nM
- IC50 (MV4-11): 122 nM
- IC50 (NCI-H1417): 213 nM

Structure (SMILES): Cn1ncc2cc(-c3ncc4c(ccn4CC4CCNCC4)c3-c3ccc(C(N)=O)cc3)ccc21
- IC50 [1]: 6250 nM

Structure (SMILES): COC(C)(C)c1ccc(-c2ncc3c(ccn3CC3CCNCC3)c2-c2ccc(C#N)cc2)cc1
- IC50 [1]: 16.5 nM

Structure (SMILES): CN(C)c1ccc(-c2ncc3c(ccn3CC3CCNCC3)c2-c2ccc(C#N)cc2)cc1
- IC50 [1]: 9.4 nM

Structure (SMILES): Cc1cc(-c2c(-c3ccc4c(cnn4C)c3)ncc3c2ccn3CC2CCNCC2)ccc1C#N
- IC50 [1]: 156 nM

Structure (SMILES): Cn1ccc2cc(-c3ncc4c(ccn4CC4CCNCC4)c3-c3ccc(C#N)cc3)cnc21
- IC50 [1]: 5.1 nM

Structure (SMILES): COC(=O)Nc1ccc(-c2ncc3c(ccn3CC3CCNCC3)c2-c2ccc(C#N)cc2)cc1
- IC50 [1]: 53.8 nM

Structure (SMILES): Cn1ccc2cc(-c3ncc4c(ccn4CC4CCNCC4)c3-c3ccc(C#N)cc3)ccc21
- IC50 [1]: 6.5 nM

Structure (SMILES): Cn1cnc2cc(-c3ncc4c(ccn4CC4CCNCC4)c3-c3ccc(C#N)cc3)ccc21
- IC50 [1]: 15.4 nM

Structure (SMILES): C=C(C)c1ccc(-c2ncc3c(ccn3CC3CCNCC3)c2-c2ccc(C#N)cc2)cc1
- IC50 [1]: 58.5 nM

Structure (SMILES): CS(=O)(=O)c1ccc(-c2ncc3c(ccn3CC3CCNCC3)c2-c2ccc(C#N)cc2)cc1
- IC50 [1]: 146 nM

Structure (SMILES): CN1CCOc2cc(-c3ncc4c(ccn4CC4(C)CCNCC4)c3-c3ccc(C#N)cc3)ccc21
- IC50 [1]: 1.3 nM
- IC50 (MOLM-13): 130 nM
- IC50 (MV4-11): 1.5 nM
- IC50 (NCI-H1417): 3.7 nM

Structure (SMILES): N#Cc1ccc(-c2c(-c3ccc4[nH]ncc4c3)ncc3c2ccn3CC2CCNCC2)cc1
- IC50 [1]: 94.3 nM

Structure (SMILES): Cn1ncc2cc(-c3ncc4c(ccn4C[C@@H]4CCCNC4)c3-c3ccc(C#N)c(F)c3)ccc21
- IC50 [1]: 3.5 nM

Structure (SMILES): Cc1ccc(-c2ncc3c(ccn3CC3CCNCC3)c2-c2ccc(C#N)cc2)cc1C
- IC50 [1]: 24.3 nM

Structure (SMILES): CNC1CCC(Cn2ccc3c(-c4ccc(C#N)c(F)c4)c(-c4ccc5c(cnn5C)c4)ncc32)CC1 (stereo not drawn)
- IC50 [1]: 229 nM

Structure (SMILES): CN1CCOc2cc(-c3ncc4c(ccn4CC4CCNCC4)c3-c3ccc(C#N)cc3)ccc21
- IC50 [1]: 4.6 nM
- IC50 (MOLM-13): 170 nM
- IC50 (MV4-11): 2.9 nM
- IC50 (NCI-H1417): 9.3 nM

Structure (SMILES): Cn1ncc2cc(-c3ncc4c(ccn4CCCCN)c3-c3ccc(C#N)cc3)ccc21
- IC50 [1]: 12.4 nM

Structure (SMILES): Cc1ccc(-c2ncc3c(ccn3CC3CCNCC3)c2-c2ccc(C#N)cc2)cn1
- IC50 [1]: 69.8 nM

Structure (SMILES): Cn1ncc2cc(-c3ncc4c(ccn4C[C@@H]4CCNC4)c3-c3ccc(C#N)c(F)c3)ccc21
- IC50 [1]: 3.7 nM
- half-life [2]: > 60 min
- half-life [3]: > 60 min
- half-life [4]: > 60 min
- half-life [5]: > 60 min

Structure (SMILES): Cn1ncc2cc(-c3ncc4[nH]ccc4c3-c3ccc(C#N)cc3)ccc21
- IC50 [1]: 3710 nM

Structure (SMILES): Cn1ncc2cc(-c3ncc4c(ccn4CC4CCNCC4)c3-c3ccc(C#N)c(F)c3)ccc21
- IC50 [1]: 3.9 nM
- IC50 (MOLM-13): 316 nM
- IC50 (MV4-11): 2.7 nM
- IC50 (NCI-H1417): 7.3 nM
- half-life [2]: > 60 min
- half-life [3]: > 60 min
- half-life [4]: > 60 min
- half-life [5]: > 60 min

Structure (SMILES): Cc1cc(C#N)ccc1-c1c(-c2ccc3c(cnn3C)c2)ncc2c1ccn2CC1CCNCC1
- IC50 [1]: 215 nM

Structure (SMILES): Cn1ncc2cc(-c3ncc4c(ccn4Cc4c[nH]cn4)c3-c3ccc(C#N)c(F)c3)ccc21
- IC50 [1]: > 10000 nM

Structure (SMILES): C/C(=N\NC(=O)c1cccc(S(=O)(=O)N2CCN(C)CC2)c1)c1cc(Cl)ccc1O [SECLIDEMSTAT]
- IC50 [1]: 26.2 nM

Next, values leading:

- IC50 [1]: 46.1 nM
Structure (SMILES): CC(C)c1ccc(-c2ncc3c(ccn3CC3CCNCC3)c2-c2ccc(C#N)cc2)cc1

- IC50 [1]: 121 nM
Structure (SMILES): CCC1(Cn2ccc3c(-c4ccc(C#N)cc4)c(-c4ccc5c(cnn5C)c4)ncc32)CCNCC1

- IC50 [1]: 17.5 nM
Structure (SMILES): Cn1ncc2cc(-c3ncc4c(ccn4CC4CCNCC4)c3-c3ccc(C#N)cc3F)ccc21

- IC50 [1]: 4.3 nM
- IC50 (MOLM-13): 58 nM
- IC50 (MV4-11): 1.7 nM
- IC50 (NCI-H1417): 2.7 nM
- half-life [2]: < 10 min
- half-life [3]: 42 min
- half-life [4]: 37 min
- half-life [5]: < 10 min
Structure (SMILES): CN1CCOc2cc(-c3ncc4c(ccn4CC4CCNCC4)c3-c3ccc(C#N)c(F)c3)ccc21

- IC50 [1]: 21.1 nM
Structure (SMILES): CC(C)(O)c1ccc(-c2ncc3c(ccn3CC3CCNCC3)c2-c2ccc(C#N)cc2)cc1

- IC50 [1]: 34.5 nM
Structure (SMILES): Cc1ccc(-c2ncc3c(ccn3CC3CCNCC3)c2-c2ccc(C#N)cc2)cc1

- IC50 [1]: > 1000 nM
Structure (SMILES): Cn1cc(-c2ncc3c(ccn3CC3CCNCC3)c2-c2ccc(C#N)cc2)cn1

- IC50 [1]: 12.9 nM
- IC50 (MOLM-13): 62 nM
- IC50 (MV4-11): 4.1 nM
- IC50 (NCI-H1417): 11 nM
Structure (SMILES): Cn1ncc2cc(-c3ncc4c(ccn4CC4CCNCC4)c3-c3ccc(C#N)cc3)ccc21

- IC50 [1]: 4.3 nM
- IC50 (MOLM-13): 126 nM
- IC50 (MV4-11): 3.2 nM
- IC50 (NCI-H1417): 5.7 nM
Structure (SMILES): Cn1ncc2cc(-c3ncc4c(ccn4CC4(C)CCNCC4)c3-c3ccc(C#N)cc3)ccc21

- IC50 [1]: 1.4 nM
- IC50 (MOLM-13): 182 nM
- IC50 (MV4-11): 0.7 nM
- IC50 (NCI-H1417): 2.3 nM
- half-life [2]: < 10 min
- half-life [3]: 36 min
- half-life [4]: 35 min
- half-life [5]: < 10 min
Structure (SMILES): CN1CCOc2cc(-c3ncc4c(ccn4CC4(C)CCNCC4)c3-c3ccc(C#N)c(F)c3)ccc21

- IC50 [1]: 42.8 nM
Structure (SMILES): CNCCCn1ccc2c(-c3ccc(C#N)cc3)c(-c3ccc4c(cnn4C)c3)ncc21

- IC50 [1]: 354 nM
Structure (SMILES): N#Cc1ccc(-c2c(-c3ccc(N)cc3)ncc3c2ccn3CC2CCNCC2)cc1

- IC50 [1]: > 10000 nM
Structure (SMILES): Cn1ncc2cc(-c3ncc4c(ccn4Cc4cccnc4)c3-c3ccc(C#N)c(F)c3)ccc21

- IC50 [1]: 47.9 nM
Structure (SMILES): CC(C)(C)c1ccc(-c2ncc3c(ccn3CC3CCNCC3)c2-c2ccc(C#N)cc2)cc1

- IC50 [1]: 3.1 nM
- IC50 (MOLM-13): 31 nM
- IC50 (MV4-11): 0.6 nM
- IC50 (NCI-H1417): 1.1 nM
- half-life [2]: > 60 min
- half-life [3]: > 60 min
- half-life [4]: > 60 min
- half-life [5]: > 60 min
Structure (SMILES): Cn1ncc2cc(-c3ncc4c(ccn4CC4(C)CCNCC4)c3-c3ccc(C#N)c(F)c3)ccc21

- IC50 [1]: 80 nM
Structure (SMILES): Cc1ccc(-c2ncc3c(ccn3C[C@@H]3CCNC3)c2-c2ccc(C#N)cc2)cc1
